System: Leptochloa chinensis
Assay: Post-emergence test experiment (Table 3, 1000 g/ha)
Assay type: in vivo
Settings: post-emergence spray, after 3 weeks, fresh weight inhibition
Procedure, shortened: (§1)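 Weed seeds sown in soil-filled pots in greenhouse, sprayed at 2-3 leaf stage (2 weeks after sowing) with compound in acetone/tween-80 plus methyl oleate emulsible concentrate (1.5 L/ha) diluted in water. Fresh-weight growth inhibition scored after 3 weeks on 0-5 scale (5: >85%, 0: <5%).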

Compound | Activity level (growth inhibition rate) Leptochloa chinensis
COc1ccc(SC(=O)C(C)Oc2nc(F)c(Cl)c(N)c2Cl)cc1 (stereo not drawn) [Compound 111] | 5 (Level 5: the growth inhibition rate is greater than 85%)
CC(C)CCSC(=O)C(C)Oc1nc(F)c(Cl)c(N)c1Cl (stereo not drawn) [Compound 146] | 5 (Level 5: the growth inhibition rate is greater than 85%)
CC(Oc1nc(F)c(Cl)c(N)c1Cl)C(=O)Sc1cccc(C(C)C)c1 (stereo not drawn) [Compound 113] | 5 (Level 5: the growth inhibition rate is greater than 85%)
CC(C)CCCSC(=O)C(C)Oc1nc(F)c(Cl)c(N)c1Cl (stereo not drawn) [Compound 154] | 5 (Level 5: the growth inhibition rate is greater than 85%)
CC(Oc1nc(F)c(Cl)c(N)c1Cl)C(=O)SC1CCCC1 (stereo not drawn) [Compound 125] | 5 (Level 5: the growth inhibition rate is greater than 85%)
CC(Oc1nc(F)c(Cl)c(N)c1Cl)C(=O)SCC#N (stereo not drawn) [Compound 155] | 5 (Level 5: the growth inhibition rate is greater than 85%)
C=CCOC(=O)C(C)(C)SC(=O)C(C)Oc1nc(F)c(Cl)c(N)c1Cl (stereo not drawn) [Compound 96] | 5 (Level 5: the growth inhibition rate is greater than 85%)
CCOC(=O)CSC(=O)C(C)Oc1nc(F)c(Cl)c(N)c1Cl (stereo not drawn) [Compound 94] | 5 (Level 5: the growth inhibition rate is greater than 85%)
CCC(C)CSC(=O)C(C)Oc1nc(F)c(Cl)c(N)c1Cl (stereo not drawn) [Compound 145] | 5 (Level 5: the growth inhibition rate is greater than 85%)
Cc1cc(SC(=O)C(C)Oc2nc(F)c(Cl)c(N)c2Cl)n(C)n1 (stereo not drawn) [Compound 117] | 5 (Level 5: the growth inhibition rate is greater than 85%)

System: Abutilon theophrasti
Assay: as above
Assay type: in vivo
Settings: post-emergence spray, after 3 weeks, fresh weight inhibition
Procedure, shortened: as §1

Compound | Activity level (growth inhibition rate) Abutilon theophrasti
COc1ccc(SC(=O)C(C)Oc2nc(F)c(Cl)c(N)c2Cl)cc1 (stereo not drawn) [Compound 111] | 5 (Level 5: the growth inhibition rate is greater than 85%)
CC(C)CCSC(=O)C(C)Oc1nc(F)c(Cl)c(N)c1Cl (stereo not drawn) [Compound 146] | 5 (Level 5: the growth inhibition rate is greater than 85%)
CC(Oc1nc(F)c(Cl)c(N)c1Cl)C(=O)Sc1cccc(C(C)C)c1 (stereo not drawn) [Compound 113] | 5 (Level 5: the growth inhibition rate is greater than 85%)
CC(C)CCCSC(=O)C(C)Oc1nc(F)c(Cl)c(N)c1Cl (stereo not drawn) [Compound 154] | 5 (Level 5: the growth inhibition rate is greater than 85%)
CC(Oc1nc(F)c(Cl)c(N)c1Cl)C(=O)SC1CCCC1 (stereo not drawn) [Compound 125] | 5 (Level 5: the growth inhibition rate is greater than 85%)
CC(Oc1nc(F)c(Cl)c(N)c1Cl)C(=O)SCC#N (stereo not drawn) [Compound 155] | 5 (Level 5: the growth inhibition rate is greater than 85%)
C=CCOC(=O)C(C)(C)SC(=O)C(C)Oc1nc(F)c(Cl)c(N)c1Cl (stereo not drawn) [Compound 96] | 5 (Level 5: the growth inhibition rate is greater than 85%)
CCOC(=O)CSC(=O)C(C)Oc1nc(F)c(Cl)c(N)c1Cl (stereo not drawn) [Compound 94] | 5 (Level 5: the growth inhibition rate is greater than 85%)
CCC(C)CSC(=O)C(C)Oc1nc(F)c(Cl)c(N)c1Cl (stereo not drawn) [Compound 145] | 5 (Level 5: the growth inhibition rate is greater than 85%)
Cc1cc(SC(=O)C(C)Oc2nc(F)c(Cl)c(N)c2Cl)n(C)n1 (stereo not drawn) [Compound 117] | 5 (Level 5: the growth inhibition rate is greater than 85%)

System: Setaria viridis
Assay: as above
Assay type: in vivo
Settings: post-emergence spray, after 3 weeks, fresh weight inhibition
Procedure, shortened: as §1

Compound | Activity level (growth inhibition rate) Setaria viridis
COc1ccc(SC(=O)C(C)Oc2nc(F)c(Cl)c(N)c2Cl)cc1 (stereo not drawn) [Compound 111] | 5 (Level 5: the growth inhibition rate is greater than 85%)
CC(C)CCSC(=O)C(C)Oc1nc(F)c(Cl)c(N)c1Cl (stereo not drawn) [Compound 146] | 5 (Level 5: the growth inhibition rate is greater than 85%)
CC(Oc1nc(F)c(Cl)c(N)c1Cl)C(=O)Sc1cccc(C(C)C)c1 (stereo not drawn) [Compound 113] | 5 (Level 5: the growth inhibition rate is greater than 85%)
CC(C)CCCSC(=O)C(C)Oc1nc(F)c(Cl)c(N)c1Cl (stereo not drawn) [Compound 154] | 5 (Level 5: the growth inhibition rate is greater than 85%)
CC(Oc1nc(F)c(Cl)c(N)c1Cl)C(=O)SC1CCCC1 (stereo not drawn) [Compound 125] | 5 (Level 5: the growth inhibition rate is greater than 85%)
CC(Oc1nc(F)c(Cl)c(N)c1Cl)C(=O)SCC#N (stereo not drawn) [Compound 155] | 5 (Level 5: the growth inhibition rate is greater than 85%)
C=CCOC(=O)C(C)(C)SC(=O)C(C)Oc1nc(F)c(Cl)c(N)c1Cl (stereo not drawn) [Compound 96] | 5 (Level 5: the growth inhibition rate is greater than 85%)
CCOC(=O)CSC(=O)C(C)Oc1nc(F)c(Cl)c(N)c1Cl (stereo not drawn) [Compound 94] | 5 (Level 5: the growth inhibition rate is greater than 85%)
CCC(C)CSC(=O)C(C)Oc1nc(F)c(Cl)c(N)c1Cl (stereo not drawn) [Compound 145] | 5 (Level 5: the growth inhibition rate is greater than 85%)
Cc1cc(SC(=O)C(C)Oc2nc(F)c(Cl)c(N)c2Cl)n(C)n1 (stereo not drawn) [Compound 117] | 5 (Level 5: the growth inhibition rate is greater than 85%)

System: Monochoria vaginalis
Assay: as above
Assay type: in vivo
Settings: post-emergence spray, after 3 weeks, fresh weight inhibition
Procedure, shortened: as §1

Compound | Activity level (growth inhibition rate) Monochoria Vaginalis
COc1ccc(SC(=O)C(C)Oc2nc(F)c(Cl)c(N)c2Cl)cc1 (stereo not drawn) [Compound 111] | 5 (Level 5: the growth inhibition rate is greater than 85%)
CC(C)CCSC(=O)C(C)Oc1nc(F)c(Cl)c(N)c1Cl (stereo not drawn) [Compound 146] | 5 (Level 5: the growth inhibition rate is greater than 85%)
CC(Oc1nc(F)c(Cl)c(N)c1Cl)C(=O)Sc1cccc(C(C)C)c1 (stereo not drawn) [Compound 113] | 5 (Level 5: the growth inhibition rate is greater than 85%)
CC(C)CCCSC(=O)C(C)Oc1nc(F)c(Cl)c(N)c1Cl (stereo not drawn) [Compound 154] | 5 (Level 5: the growth inhibition rate is greater than 85%)
CC(Oc1nc(F)c(Cl)c(N)c1Cl)C(=O)SC1CCCC1 (stereo not drawn) [Compound 125] | 5 (Level 5: the growth inhibition rate is greater than 85%)
CC(Oc1nc(F)c(Cl)c(N)c1Cl)C(=O)SCC#N (stereo not drawn) [Compound 155] | 5 (Level 5: the growth inhibition rate is greater than 85%)
C=CCOC(=O)C(C)(C)SC(=O)C(C)Oc1nc(F)c(Cl)c(N)c1Cl (stereo not drawn) [Compound 96] | 5 (Level 5: the growth inhibition rate is greater than 85%)
CCOC(=O)CSC(=O)C(C)Oc1nc(F)c(Cl)c(N)c1Cl (stereo not drawn) [Compound 94] | 5 (Level 5: the growth inhibition rate is greater than 85%)
CCC(C)CSC(=O)C(C)Oc1nc(F)c(Cl)c(N)c1Cl (stereo not drawn) [Compound 145] | 5 (Level 5: the growth inhibition rate is greater than 85%)
Cc1cc(SC(=O)C(C)Oc2nc(F)c(Cl)c(N)c2Cl)n(C)n1 (stereo not drawn) [Compound 117] | 5 (Level 5: the growth inhibition rate is greater than 85%)

System: Galium spurium
Assay: as above
Assay type: in vivo
Settings: post-emergence spray, after 3 weeks, fresh weight inhibition
Procedure, shortened: as §1

Compound | Activity level (growth inhibition rate) Galium spurium
COc1ccc(SC(=O)C(C)Oc2nc(F)c(Cl)c(N)c2Cl)cc1 (stereo not drawn) [Compound 111] | 5 (Level 5: the growth inhibition rate is greater than 85%)
CC(C)CCSC(=O)C(C)Oc1nc(F)c(Cl)c(N)c1Cl (stereo not drawn) [Compound 146] | 5 (Level 5: the growth inhibition rate is greater than 85%)
CC(Oc1nc(F)c(Cl)c(N)c1Cl)C(=O)Sc1cccc(C(C)C)c1 (stereo not drawn) [Compound 113] | 5 (Level 5: the growth inhibition rate is greater than 85%)
CC(C)CCCSC(=O)C(C)Oc1nc(F)c(Cl)c(N)c1Cl (stereo not drawn) [Compound 154] | 5 (Level 5: the growth inhibition rate is greater than 85%)
CC(Oc1nc(F)c(Cl)c(N)c1Cl)C(=O)SC1CCCC1 (stereo not drawn) [Compound 125] | 5 (Level 5: the growth inhibition rate is greater than 85%)
CC(Oc1nc(F)c(Cl)c(N)c1Cl)C(=O)SCC#N (stereo not drawn) [Compound 155] | 5 (Level 5: the growth inhibition rate is greater than 85%)
C=CCOC(=O)C(C)(C)SC(=O)C(C)Oc1nc(F)c(Cl)c(N)c1Cl (stereo not drawn) [Compound 96] | 5 (Level 5: the growth inhibition rate is greater than 85%)
CCOC(=O)CSC(=O)C(C)Oc1nc(F)c(Cl)c(N)c1Cl (stereo not drawn) [Compound 94] | 5 (Level 5: the growth inhibition rate is greater than 85%)
CCC(C)CSC(=O)C(C)Oc1nc(F)c(Cl)c(N)c1Cl (stereo not drawn) [Compound 145] | 5 (Level 5: the growth inhibition rate is greater than 85%)
Cc1cc(SC(=O)C(C)Oc2nc(F)c(Cl)c(N)c2Cl)n(C)n1 (stereo not drawn) [Compound 117] | 5 (Level 5: the growth inhibition rate is greater than 85%)

System: Digitaria sanguinalis
Assay: as above
Assay type: in vivo
Settings: post-emergence spray, after 3 weeks, fresh weight inhibition
Procedure, shortened: as §1

Compound | Activity level (growth inhibition rate) Digitaria sanguinalis
COc1ccc(SC(=O)C(C)Oc2nc(F)c(Cl)c(N)c2Cl)cc1 (stereo not drawn) [Compound 111] | 5 (Level 5: the growth inhibition rate is greater than 85%)
CC(C)CCSC(=O)C(C)Oc1nc(F)c(Cl)c(N)c1Cl (stereo not drawn) [Compound 146] | 5 (Level 5: the growth inhibition rate is greater than 85%)
CC(Oc1nc(F)c(Cl)c(N)c1Cl)C(=O)Sc1cccc(C(C)C)c1 (stereo not drawn) [Compound 113] | 5 (Level 5: the growth inhibition rate is greater than 85%)
CC(C)CCCSC(=O)C(C)Oc1nc(F)c(Cl)c(N)c1Cl (stereo not drawn) [Compound 154] | 5 (Level 5: the growth inhibition rate is greater than 85%)
CC(Oc1nc(F)c(Cl)c(N)c1Cl)C(=O)SC1CCCC1 (stereo not drawn) [Compound 125] | 5 (Level 5: the growth inhibition rate is greater than 85%)
CC(Oc1nc(F)c(Cl)c(N)c1Cl)C(=O)SCC#N (stereo not drawn) [Compound 155] | 5 (Level 5: the growth inhibition rate is greater than 85%)
C=CCOC(=O)C(C)(C)SC(=O)C(C)Oc1nc(F)c(Cl)c(N)c1Cl (stereo not drawn) [Compound 96] | 5 (Level 5: the growth inhibition rate is greater than 85%)
CCOC(=O)CSC(=O)C(C)Oc1nc(F)c(Cl)c(N)c1Cl (stereo not drawn) [Compound 94] | 5 (Level 5: the growth inhibition rate is greater than 85%)
CCC(C)CSC(=O)C(C)Oc1nc(F)c(Cl)c(N)c1Cl (stereo not drawn) [Compound 145] | 5 (Level 5: the growth inhibition rate is greater than 85%)
Cc1cc(SC(=O)C(C)Oc2nc(F)c(Cl)c(N)c2Cl)n(C)n1 (stereo not drawn) [Compound 117] | 5 (Level 5: the growth inhibition rate is greater than 85%)

— patent US12391648B2, “Pyridyloxy thioester derivative and preparation method therefor, herbicidal composition, and application” (Qingdao Kingagroot Chemical Compound Co., Ltd., priority 2018, dated 2025)
